From ChEMBL document CHEMBL1151030, “Synthesis of tetrazol-1-yl analogs of HMG-COA reductase inhibitor BMS180431 (formerly BMY21950)” (Bioorg Med Chem Lett, 1992)

Key:
[1] = target: T1, 3-hydroxy-3-methylglutaryl-coenzyme A reductase (Mus musculus, UniProt Q01237); test: In vitro inhibitory activity against isolated enzyme HMG-CoA reductase
T1 sequence (Q01237 whole entry): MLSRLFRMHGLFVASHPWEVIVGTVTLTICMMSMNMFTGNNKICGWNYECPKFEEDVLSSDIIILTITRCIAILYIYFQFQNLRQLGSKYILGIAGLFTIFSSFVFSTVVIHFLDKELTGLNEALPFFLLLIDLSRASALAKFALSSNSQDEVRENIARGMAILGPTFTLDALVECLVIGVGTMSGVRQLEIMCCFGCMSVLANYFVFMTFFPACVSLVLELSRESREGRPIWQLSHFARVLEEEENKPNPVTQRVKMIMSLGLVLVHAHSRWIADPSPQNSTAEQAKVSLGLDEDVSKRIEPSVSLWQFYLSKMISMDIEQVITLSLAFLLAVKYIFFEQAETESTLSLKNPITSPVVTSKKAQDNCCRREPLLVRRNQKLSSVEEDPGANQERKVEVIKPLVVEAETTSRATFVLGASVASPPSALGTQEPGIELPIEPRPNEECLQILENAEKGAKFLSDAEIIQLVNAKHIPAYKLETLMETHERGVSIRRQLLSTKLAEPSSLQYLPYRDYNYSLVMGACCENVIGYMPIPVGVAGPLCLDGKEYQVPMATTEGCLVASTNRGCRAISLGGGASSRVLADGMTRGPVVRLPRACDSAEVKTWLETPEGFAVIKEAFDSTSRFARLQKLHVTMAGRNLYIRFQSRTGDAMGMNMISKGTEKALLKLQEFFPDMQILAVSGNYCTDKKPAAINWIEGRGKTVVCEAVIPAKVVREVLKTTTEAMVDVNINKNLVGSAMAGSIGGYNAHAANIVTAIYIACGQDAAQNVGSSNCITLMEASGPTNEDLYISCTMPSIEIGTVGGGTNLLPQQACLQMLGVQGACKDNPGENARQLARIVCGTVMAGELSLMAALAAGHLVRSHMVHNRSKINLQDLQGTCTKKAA

[2] = target: T2, 3-hydroxy-3-methylglutaryl-coenzyme A reductase (Rattus norvegicus, UniProt P51639); test: Compound was evaluated for inhibitory activity against HMG-CoA reductase in spleen cell preparation; format: tissue-based
T2 sequence (P51639 whole entry): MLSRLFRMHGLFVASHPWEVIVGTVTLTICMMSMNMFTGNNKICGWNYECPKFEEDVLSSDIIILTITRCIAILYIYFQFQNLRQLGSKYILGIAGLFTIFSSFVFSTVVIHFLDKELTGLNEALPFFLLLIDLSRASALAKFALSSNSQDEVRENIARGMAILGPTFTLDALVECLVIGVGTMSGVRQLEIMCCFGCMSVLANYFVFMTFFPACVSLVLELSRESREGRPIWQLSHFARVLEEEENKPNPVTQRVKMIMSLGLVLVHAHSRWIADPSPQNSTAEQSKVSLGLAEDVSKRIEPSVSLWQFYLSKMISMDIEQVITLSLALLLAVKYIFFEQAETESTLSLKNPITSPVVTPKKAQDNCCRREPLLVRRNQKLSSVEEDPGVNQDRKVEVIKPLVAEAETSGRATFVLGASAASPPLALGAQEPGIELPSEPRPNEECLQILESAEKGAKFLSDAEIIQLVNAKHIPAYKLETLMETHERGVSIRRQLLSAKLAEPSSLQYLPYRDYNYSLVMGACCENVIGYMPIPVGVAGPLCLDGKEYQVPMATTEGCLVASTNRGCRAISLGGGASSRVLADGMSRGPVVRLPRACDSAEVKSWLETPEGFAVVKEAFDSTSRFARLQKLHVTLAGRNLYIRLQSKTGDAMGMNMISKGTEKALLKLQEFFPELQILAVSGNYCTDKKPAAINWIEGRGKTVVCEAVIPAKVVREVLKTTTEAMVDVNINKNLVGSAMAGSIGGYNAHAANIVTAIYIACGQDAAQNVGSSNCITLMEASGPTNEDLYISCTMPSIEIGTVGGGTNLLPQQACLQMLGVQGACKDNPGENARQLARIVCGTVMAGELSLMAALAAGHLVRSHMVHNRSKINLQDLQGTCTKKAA

HepG2 = test: Ratio of inhibitory activity against HMG-CoA reductase of HepG2 cells vs hepatocytes; format: cell-based
[3] = target: T3, 3-hydroxy-3-methylglutaryl-coenzyme A reductase (Homo sapiens, UniProt P04035); test: Compound was evaluated for inhibitory activity against HMG-CoA reductase in adrenal cell preparation; format: cell-based
T3 sequence (P04035 whole entry): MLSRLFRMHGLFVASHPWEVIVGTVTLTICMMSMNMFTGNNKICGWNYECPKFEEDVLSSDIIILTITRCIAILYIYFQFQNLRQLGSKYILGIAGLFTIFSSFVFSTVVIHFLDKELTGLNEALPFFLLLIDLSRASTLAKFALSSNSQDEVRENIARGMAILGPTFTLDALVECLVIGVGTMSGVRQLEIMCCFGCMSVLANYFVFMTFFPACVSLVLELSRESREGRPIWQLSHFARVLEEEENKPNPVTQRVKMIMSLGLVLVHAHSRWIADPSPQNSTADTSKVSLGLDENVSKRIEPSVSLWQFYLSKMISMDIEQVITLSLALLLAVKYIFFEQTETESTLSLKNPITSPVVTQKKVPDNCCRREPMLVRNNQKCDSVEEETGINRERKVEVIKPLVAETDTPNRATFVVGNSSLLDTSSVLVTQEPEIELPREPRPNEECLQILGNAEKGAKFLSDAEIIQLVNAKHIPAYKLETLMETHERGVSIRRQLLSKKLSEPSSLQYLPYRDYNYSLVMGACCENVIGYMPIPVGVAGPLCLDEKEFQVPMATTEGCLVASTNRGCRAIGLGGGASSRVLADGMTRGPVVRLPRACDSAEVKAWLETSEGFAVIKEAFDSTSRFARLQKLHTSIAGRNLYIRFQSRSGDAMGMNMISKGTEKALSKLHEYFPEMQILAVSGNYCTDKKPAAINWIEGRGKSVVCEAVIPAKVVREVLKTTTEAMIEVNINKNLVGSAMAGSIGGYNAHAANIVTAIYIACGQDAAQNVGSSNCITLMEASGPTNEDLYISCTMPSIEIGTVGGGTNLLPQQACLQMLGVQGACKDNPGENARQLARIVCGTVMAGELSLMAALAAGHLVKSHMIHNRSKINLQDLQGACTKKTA

[4] = target: T2, 3-hydroxy-3-methylglutaryl-coenzyme A reductase; test: Compound was evaluated for inhibitory activity against HMG-CoA reductase in testes cell preparation; format: tissue-based, Testis
[5] = target: T3, 3-hydroxy-3-methylglutaryl-coenzyme A reductase; test: Compound was evaluated for inhibitory activity against HMG-CoA reductase in HepG2 cells; format: cell-based
[6] = target: T2, 3-hydroxy-3-methylglutaryl-coenzyme A reductase; test: Compound was evaluated for inhibitory activity against HMG-CoA reductase from rat hepatocyte; format: cell-based
Hepatocyte = test: Ratio of inhibitory activity of HepG2 to hepatocyte; format: cell-based

Cn1nnnc1C(/C=C/[C@@H](O)C[C@@H](O)CC(=O)O)=C(c1ccc(F)cc1)c1ccc(F)cc1
IC50 [1]: 43 nM | IC50 [2]: 3200 nM | Ratio (HepG2): 62 | IC50 [3]: 1600 nM | IC50 [4]: 1800 nM | IC50 [5]: 1340 nM

O=C(O)C[C@H](O)C[C@H](O)/C=C/C(=C(c1ccc(F)cc1)c1ccc(F)cc1)n1nnnc1-c1ccccc1
IC50 [1]: > 100000 nM

CC[C@H](C)C(=O)O[C@H]1C[C@@H](C)C=C2C=C[C@H](C)[C@H](CC[C@@H]3C[C@@H](O)CC(=O)O3)[C@H]21 [LOVASTATIN]
IC50 [1]: 27 nM

O=C(O)C[C@H](O)C[C@H](O)/C=C/C(=C(c1ccc(F)cc1)c1ccc(F)cc1)n1cnnn1
IC50 [1]: 120 nM | Ratio (HepG2): 86 | IC50 [6]: 20 nM | IC50 [5]: 1720 nM

Cc1nnnn1C(/C=C/[C@@H](O)C[C@@H](O)CC(=O)O)=C(c1ccc(F)cc1)c1ccc(F)cc1
IC50 [1]: 630 nM | IC50 [6]: 100 nM | IC50 [5]: 1290 nM | Ratio (Hepatocyte): 13
